Data published in ChEMBL document CHEMBL5046265, “Synthesis of Hemiprotonic Phenanthroline-Phenanthroline+ Compounds with both Antitumor and Antimicrobial Activity” (J Med Chem, 2022).
Activity calls are given as the source filed them.

Legend:
Type in all cases: functional, organism-based
Conditions in all cases: time 9.0 day
[1] = tested on: Mus musculus; experiment: Anti-Cryptococcal activity against Cryptococcus neoformans infected pneumonia and encephalitis C57BL/6J mouse model assessed as improvement in clinical symptoms at 8 mg/kg, iv administered once a day for 9 days
[2] = tested on: Mus musculus; experiment: Anti-Cryptococcal activity against Cryptococcus neoformans infected pneumonia and encephalitis C57BL/6J mouse model assessed as increase in body weight at 8 mg/kg, iv administered once a day for 9 days
[3] = tested on: Mus musculus; experiment: Anti-Cryptococcal activity against Cryptococcus neoformans infected pneumonia and encephalitis C57BL/6J mouse model assessed as reduction in brain edema at 8 mg/kg, iv administered once a day for 9 days and measured at 24 hrs at last post-dosage
[4] = tested on: Mus musculus; experiment: Anti-Cryptococcal activity against Cryptococcus neoformans infected pneumonia and encephalitis C57BL/6J mouse model assessed as reduction in pneumonia symptoms at 8 mg/kg, iv administered once a day for 9 days and measured at 24 hrs at last post-dosage

Measured: Activity

OC(Cn1cncn1)(Cn1cncn1)c1ccc(F)cc1F
active: [1] | [2] | [3] | [4]
